Experimental data published in patent publication US9404087B2, “Insulin producing cells derived from pluripotent stem cells” (Kadimastem Ltd., priority 2010, dated 2016).

Tests used:
Type in all cases: cell-based
Human insulin mRNA = Human insulin mRNA by RT-qPCR with TBP as reference; settings: EDTA added during the re-aggregation step
Procedure: Aliquots of the Presort culture and of EpCAM-MACS-separated fractions (from step 7), as well as of re-aggregated clusters (step 8) were analyzed. The number of cells was counted, using the Nucleocounter. After centrifugation at 350×g for 5 minutes, cell pellets were dissolved in M-PER (Mammalian protein extraction reagent, Pierce), typically using 0.1 ml M-PER for 2 million cells, and content of human insulin C-peptide was measured with an ELISA kit (Mercodia, Upsalh, Sweden, ultrasensitive c-peptide kit (minimal detection 5 pM) or Mercodia c-peptide ELISA (minimal detection 90 pM). Samples in M-PER were diluted 3 fold, or more in the kit buffer, and 20 μl of the ⅓ dilution were assayed. Results were expressed per mg total protein (as measured by Bradford assay) and per million cells (counted in a NucleoCounter). Other cell pellets were suspended in 0.7 ml buffer RLT (RNAeasy, Qiagen) per million cells, for RNA extraction. Human insulin mRNA was quantitated by RT-qPCR (Taq-Man, Applied Biosystems, Step One) using the TATA binding protein (TBP) gene as reference. In the same way, proteins and RNA were extracted from entire plates after scraping the cells with a rubber policeman. […]

human insulin C-peptide = experiment: Content of human insulin C-peptide by ELISA in cell fractions; settings: EDTA added during re-aggregation (Table 2, Expt 3)
Procedure: On day 20, the medium used in step III of Example 2 was modified to adjust the glucose concentration to 5.5 mM (referred to herein as DM7). For isolation of EpCAM^+ cells by magnetic cell sorting (MACS technology, Miltenyi Biotec), a 10 cm-diameter plate was washed with PBS^−/− (no Ca^++, no Mg^++). Cells were then dissociated by treatment with Accutase (Stempro, 2.5 ml/10 cm plate), for 10 minutes at 37° C., and pipetting up and down. The cells were collected in DM7 and an aliquot counted in a NucleoCounter (New Brunswick). Cells were centrifuged at 1,500 rpm (350×g) for 5 minutes and re-suspended in MACS buffer (PBS^−/− with 0.5% BSA, 2 mM EDTA), using 0.3 ml for 50 million cells. Magnetic beads conjugated to anti-EpCAM antibodies (Miltenyi Biotec—CD326 pluripotent stem cells microbeads) were added (0.1 ml beads for 50 million cells). After 30 minutes at 4° C., the cells were washed once in 50 ml of MACS buffer, centrifuged, and finally re-suspended in 0.5 ml MACS buffer (for a maximum of 10^8 cells). […]
Aliquots of the Presort culture and of EpCAM-MACS-separated fractions (from step 7), as well as of re-aggregated clusters (step 8) were analyzed. The number of cells was counted, using the Nucleocounter. […] Human insulin mRNA was quantitated by RT-qPCR (Taq-Man, Applied Biosystems, Step One) using the TATA binding protein (TBP) gene as reference. […]

human ES cells [1] = experiment: Immunofluorescence for Pdx1 positive cells during differentiation
Procedure: On day 6, cells were washed with DMEM/F12, 2 mM glutamine, 1×PS, and medium changed to differentiation medium B1 (DMEM/F12, 2 mM glutamax (Invitrogen), 2 mg/ml BSA, 1% B27 supplement (In Vitrogen) 50 ng/ml human recombinant FGF10 (Preprotech), and 10 μM Forskolin (F-6886 from coleus forskohlii (SIGMA)). The cells were left two days in the same medium.
On day 8, the medium was changed to differentiation medium B2 i.e. medium B1 with addition of 2 μM fresh ATRA (All trans retinoic acid) for five days. Medium was changed every two days.
(§1) On day 13, medium was changed to DMEM/F12, Glutamine 2 mM, PS, 1×ITS supplement (Invitrogen), 2 mg/ml BSA, 5 μg/ml bovine fibronectin (Biological Industries Bet Ha'emek,), Nicotinamide 10 mM (SIGMA) and exendin-4, 5-50 ng/ml. Medium was changed every two days. Cells positive for C-peptide staining start to appear around day 19 of differentiation, but strong immunostaining for C-peptide appears at day 23 and positive islet like structures continue to form till day 50 and persist for at least 70 days. When the cells have differentiated more than 15-20 days, they can be further trypsinized and replated. On the second plating, islet-like structures appear 20-30 days after replating.
Performed as in Example 1. Goat polyclonal anti-human Pdx1/IPF1 (R&D) antibody at 1:100 for 2 hrs, (blocking at 5% BSA in PBS with Triton 0.1%) was used. […]

human ES cells [2] = experiment: Immunostaining for C-peptide and glucagon in islet-like structures
Procedure: as §1
Cultures obtained as in Examples 1 and 2 were further cultured in ITS medium (as detailed in step III of Example 2) and were stained using polyclonal rabbit antibody to C-peptide (Acris) or monoclonal antibody (MAB 1975, Abcam) at dilution 1:200 overnight. To detect glucagon-produing cells, the cultures were also stained with goat polyclonal antibody against Glucagon (Santa Cruz N-17) at the concentration of 1:200 over night. The glucose transporter Glut2 was detected with mouse monoclonal Anti Glut-2 antibodies (R&D systems) used at the concentration of 1:200. […]

## O=C(O)CN(CCN(CC(=O)O)CC(=O)O)CC(=O)O [EDTA, reference compound]
Human insulin mRNA
  effect on enrichment of insulin mRNA: increased
Human insulin C-peptide
  effect on C-peptide content of re-aggregated cells: further increase

## CC1=C(/C=C/C(C)=C/C=C/C(C)=C/C(=O)O)C(C)(C)CCC1 [retinoic acid, All trans retinoic acid]
Human ES cells [1]; day 14, two days after end of retinoic acid treatment (2 μM ATRA with FGF10 and forskolin)
  cultured cells expressing Pdx1: about 50%

## exendin-4: maturation factor added to ITS medium at 5-50 ng/ml
Human ES cells [1]; 5-50 ng/ml, with nicotinamide, cell counting (data not shown)
  effect on the percentage of Pdx1 positive cells: positive effect
Human ES cells [2]; 5 ng/ml, after 60 days of differentiation (FIGS. 9A-B)
  total amount of cells positive for C-peptide versus control without exendin-4: sufficient to increase
Human ES cells [2]; day 60 (not shown)
  number of C-peptide/glucagon positive areas, 50 ng/ml relative to 5 ng/ml: 3 time more
